Target: T1, MpPR-1i (Moniliophthora perniciosa, UniProt H6U756)
T1 construct: gene PR-1i; signal peptide removed; cDNA from green broom stage; modified pET SUMO, E. coli SHuffle; His-SUMO tag cut with ULP-1; untagged; monomer
Assay: radioligand binding, Q-sepharose capture, scintillation counting

T1 sequence (H6U756 entry or part of it): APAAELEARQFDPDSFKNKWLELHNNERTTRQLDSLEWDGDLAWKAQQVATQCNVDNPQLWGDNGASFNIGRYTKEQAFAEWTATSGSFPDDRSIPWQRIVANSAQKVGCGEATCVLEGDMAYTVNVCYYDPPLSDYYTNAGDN

Question: `CCCCCCCCCCCCCCCC(=O)O` [palmitic acid] was tested. Which Kd did it give?
Answer: 107 µM

Reference: article PMC5552782, “Crystal Structure of MpPR-1i, a SCP/TAPS protein from Moniliophthora perniciosa, the fungus that causes Witches’ Broom Disease of Cacao” (Scientific Reports, 2017)
